Laboratory results: patent publication US11229712B2, “In vivo detection of a xenon-binding cage molecule” (Lakehead University, priority 2016, dated 2022)
“Also recorded” adds a separate entry of the source.

Tests used:
[1] = HyperCEST depletion of CB6 in whole bovine blood (129Xe NMR spectra, 3T); assay type: physicochemical
Description: […] of cucurbituril (CB6) was made by dissolving 50 mg of CB6 (Sigma-Aldrich, St. Louis, USA) in 10 mL of 1× phosphate buffered saline (PBS) at pH 7.2 at room temperature. The mixture was shaken gently. Ten mL of the CB6-PBS solution was mixed with 10 mL of fresh citrated bovine blood (Cederlane, Burlington Calif.) within a 30 mL syringe to create a 2.5 mM solution of CB6 in a blood solution. The control sample was prepared in an identical manner as the CB6 solution except CB6 was omitted. The control sample contained 10 mL of PBS and 10 mL of bovine blood.
Serial dilutions of CB6 in blood were made by adding an appropriate amount of blood to the 2.5 mM stock solution.
^129Xe gas was polarized to 30% using a Xemed polarizer (Xemed, Durham, N.H.). 7.5 mL of HP ^129Xe gas was introduced into the syringe over 5 s from the Tedlar bag in the pressure chamber which was pressurized at 3 psi above atmosphere. The solution and gas were mixed by agitating the syringe for approximately 12 s. Approximately 3 mL of ^129Xe dissolved in the blood/PBS solvent, the remaining undissolved ^129Xe was ejected from the syringe, yielding an effective ^129Xe concentration of 7.5 mM. The procedure was repeated for each spectral acquisition for the HyperCEST depletion spectrum. The 30 mL syringe containing the CB6-blood solution was placed inside a custom RF coil tuned to the Larmor frequency of 129Xe (35.33 MHz) at 3T. A Philips Achieva 3T clinical scanner was used to acquire all NMR spectra and MR images. A free induction decay (FID) was collected and the chemical shift of the ^129Xe/CB6 complex was noted. Ref B1 is a parameter of Philips MR scanners and is used to calculate the RF pulse length. The scanner uses the pulse length and flip angle to determine the amplitude of the RF pulse and field strength. For these experiments, the scanner set a B1 field strength of 1.18 μT. For the NMR spectra and images, a pulsed saturation pre-pulse train consisting of 16-6 ms 3-lobe sinc pulses with 3 ms pulse intervals was applied +124.3 ppm off resonance from the gas phase peak which corresponds to the chemical shift of the CB6-Xe complex. For initial HyperCEST depletion measurements, control spectra were collected with an off resonance saturation pre-pulse at 258 ppm. A HyperCEST depletion spectrum was collected by measuring HyperCEST depletion at various shift offsets from the CB6/Xe peak. A minimum of 3 spectra were collected at each chemical shift and the mean signal depletion was plotted as a function of the frequency of the chemical shift offset. The signal-noise ratio (SNR) of each spectrum was calculated using MATLAB (MathWorks, Natick Mass.). Signal depletion values due to the HyperCEST effect were measured by subtracting the HyperCEST saturation spectrum SNR from the control spectrum SNR and dividing by the control SNR.

[2] = HyperCEST 129Xe MR imaging of syringes with CB6 blood solution and saturation map; assay type: physicochemical, bovine; conditions: 2.5 mM CB6 in blood, on-resonance pre-pulses at 124.3 ppm (FIG. 4)
Excerpt: We obtained MR images of two syringes within the same field of view: one filled with a CB6 blood solution, the other with only a blood solution and no CB6 molecules (FIG. 4). Signal from the plasma, gas phase, and RBC-bound xenon is present in the control image (FIG. 4A). We observed a gas phase chemical shift artifact, offset by 43 pixels of 67.1 mm. Additionally, we observed a stronger gas phase signal from the control solution (right syringe) than the CB6 syringe (left syringe). We attribute this phenomenon to the differences in the extent of blood foam formation between the two solutions. The control solution foamed more than the CB6 solution, which provided a reservoir of gaseous hyperpolarized xenon to exchange with the xenon dissolved in the plasma providing a stronger xenon-plasma signal. […] A saturation map was produced (FIG. 4C) by normalizing each image by Its own background noise and subtracting the off-resonance control image from the HyperCEST saturation image and normalizing pixel-by-pixel, the off-resonance image. […]
^129Xe gas was polarized to 30% using a Xemed polarizer (Xemed, Durham, N.H.). […] The signal-noise ratio (SNR) of each spectrum was calculated using MATLAB (MathWorks, Natick Mass.). Signal depletion values due to the HyperCEST effect were measured by subtracting the HyperCEST saturation spectrum SNR from the control spectrum SNR and dividing by the control SNR.

[3] = In vivo HyperCEST 129Xe MR spectra of abdomen and brain after IV CB6; design: species or system Sprague-Dawley rat; conditions: 3 mL of 10 mM CB6 IV, pre-pulse +124.3 ppm
Description: A 10 mM solution of the CB6 cage molecule dissolved in 1×PBS (pH 7.2) was prepared. 3 mL of the CB6 solution was injected into the tail vein catheter of a Sprague-Dawley rat and allowed to bio-distribute for 30 minutes. An endotracheal tube was surgically placed in the anaesthetized rat, and the rat was ventilated with 100% oxygen using a custom made ventilator. The rat was placed into a whole body custom made rat RF coil. Five seconds prior to xenon MR image acquisition, the rat was ventilated with a gas mixture of 80% xenon/20% oxygen. We acquired free induction decay (FID) magnetic resonance spectra (MRS) (FIGS. 5 & 6, A & D) from both the abdomen and head of the rat. […] We attribute this to a variety of susceptibility and line broadening effects occurring in vivo. […]
(§1) A midline incision was made in the neck of the rat and the trachea localized. […] A Positive End Expiratory Pressure of 20 mBar was measured. […]
30 minutes following injection of CB6, the ventilator was set to continuously dispense an 80% xenon/20% oxygen mixture to the rat. […] The signal to noise ratio (SNR) of each spectrum was calculated using MATLAB. The HyperCEST depletion at each chemical shift offset was calculated and plotted using Microsoft Excel.

[4] = In vivo HyperCEST 129Xe MRI saturation maps showing location of CB6; design: species or system Sprague-Dawley rat; conditions: rat
Excerpt: We then acquired ^1H turbo spin echo (TSE) MR images to correlate the xenon signal with its anatomical location. Immediately prior to ^129Xe image acquisition, the rat was ventilated with xenon as described above. The imaging sequence began with a saturation pre-pulse consisting of sixteen 20 ms 3-lobe sinc pulses with a 3 sec pulse interval applied at […] chemical shift frequencies. ^129Xe gradient echo (GE) images were acquired with both on-resonance and off-resonance saturation pre-pulses (FIGS. 6 & 7B & E). […] By applying the HyperCEST saturation pulses, we observed a reduction in signal in areas containing the CB6 molecules (FIGS. 6 & 7E).
We also created a HyperCEST saturation map in the brain of the rat (FIG. 8B).
All animal procedures were approved by the Lakehead University Animal Care Committee. Sprague-Dawley rats (n=6) (Charles River, Sherbrook QC) weighing between 300-400 g were anesthetized using 4 LPM of isoflurane until their corneal reflex became absent. […]
as §1
30 minutes following CB6 injection, the ventilator was set to dispense xenon to the rat. […] Images were collected and analyzed using MATLAB. […]

[5] = from reference 14; cited from earlier work

With `O=C1N2CN3C(=O)N4CN5C(=O)N6CN7C(=O)N8CN9C(=O)N%10CN%11C(=O)N%12CN1C1C2N2CN%13C(=O)N(CN%14C(=O)N(CN%15C(=O)N(CN%16C(=O)N(CN%17C(=O)N(CN1C2=O)C%12C%11%17)C%10C9%16)C8C7%15)C6C5%14)C4C3%13` (centres unmarked) [CB6, cucurbituril] the “HyperCEST depletion as a function of CB6 concentration” value ([1]; 250 μM CB6 in whole bovine blood (FIG. 3)) was 14%, the “HyperCEST depletion in the dissolved phase xenon signal” value ([1]; 2.5 mM CB6 in blood and PBS, saturation pre-pulse train at +124.3 ppm (FIG. 1)) was 84% and the “HyperCEST depletion as a function of CB6 concentration” value ([1]; 2.5 mM CB6 in whole bovine blood (FIG. 3)) was 80%. For the same compound, the “HyperCEST signal depletion, local minimum of depletion spectrum” value ([1]; CB6 in blood, pulsed at +124.3 ppm (FIG. 2)) was 74%, the “Lowest CB6 concentration at which HyperCEST depletion was measurable” value ([1]; serial dilutions of CB6 in blood) was 10 µM and the “Depletion of dissolved phase xenon signal in MR image and saturation map” value [2] was “almost complete depletion; also recorded: strong CB6 HyperCEST signal depletion”. The “Reduction in signal intensity compared to the off-resonance control spectrum” value ([3]; rat abdomen, 30 minutes) was 86%, the “Reduction in signal intensity of the MR signal” value ([3]; rat brain) was 38% and the “Location of CB6 in HyperCEST saturation map” value ([4]; 3 mL of 10 mM CB6 IV, imaging 30 minutes after injection) was “heart, lungs, aorta, kidneys, and bladder; also recorded: brain, heart, lungs, aorta, carotid arteries, and kidneys”. For the same compound, the “Excretion of CB6” value ([4]; weak HyperCEST signal from the bladder) was “renal clearance into the bladder; also recorded: excreted by the kidneys” and the Xe-CB6 exchange [5] was 1470 s⁻¹.
